Results published in patent EP1276895B1, “METHOD FOR THE IDENTIFICATION OF ACTIVE SITE PROTEASE INACTIVATORS” (THE UNIVERSITY OF GEORGIA RESEARCH FOUNDATION, INC., priority 2000, dated 2001).
Residues, ends and D or L forms follow the SMILES beside them. *: point of attachment. AFC = O=c1cc(C(F)(F)F)c2ccc(N*)cc2o1; Cbz = O=C(OCc1ccccc1)*; CH2F = FC*

Legend:
[1] = test system: purified Taenia solium cysteine protease; test: Competitor assay of low Vmax substrates (vehicles) against high Vmax substrate cocktails (Step III), purified protease; assay type: biochemical; conditions: robustness of inhibition
[2] = test system: purified Taenia solium cysteine protease; test: Inhibition assay of protease inactivators against the high Vmax cocktail, EC100 and Ki ranking (Step VII B); assay type: biochemical; conditions: for ranking of protease inactivators by EC100: dilution study, nanomolar levels; for % Inhibition of T. solium CP in vitro: concentration not stated in Table 4; for Ki of protease inactivator: nonlinear fitting and Dixon plot, values not reported
Source text: Once the protease inactivators were synthesized in the organic laboratory, they were to be tested for the lowest efficacious concentrations at which they induced 100% inhibition of the target protease (EC100). The top percent cocktail that was employed in the final vehicle selection step of Step III was employed as the source of competition for the inhibitors. In this case, this was the […] which was comprised of Z-FR-AFC, Z-FAR-AFC, Z-AP-AFC, Z-AAK-AFC, and Z-VLR-AFC. The final result would be a ranking of transition state candidate protease inactivators with a high ranking directly correlating to a low EC100 value. The following steps describe the assay:
Step A: Initial Screening. To set up the test control, each protease inactivator was first incubated with the […] (which provided the final differentiation of vehicles in Step III). To begin with, the protease inactivator was incubated at a concentration of 3 X 10^-9M in 500 ul of assay buffer ([…], pH 4.9 supplemented with 10mM L-cysteine). This concentration was determined, after a series of inhibitor dilutions identified, to be the best inhibitor concentration at which a differentiation in inhibitor potential could be noted. Next, a concentration equal to 4 X 10^-5M for each of the individual cocktail components, was added to the mix. The components were allowed to equilibrate for a period of 30 minutes. Finally, active purified enzyme was added to the tubes at a concentration which was always at least 50 times less than the concentration of the lowest concentration in the mix (to provide saturating conditions.) This concentration varied from purification to purification and the amount added depended upon the yield and specific activity of the purified protease.
Positive controls were set up similarly as described for test controls, except that solvent was added in substitution for the protease inactivator (in a volume equal to the […] volume addition). All of the protease inactivators could be dissolved in dimethylsulfoxide (DMSO), and therefore, this was the solvent of choice. Negative controls were set up by adding the protease inactivator and the cocktail substrates in a tube, without the protease. All potential non-proteolytic induced liberation of AFC was therefore controlled for in this tube (a feature which also insured stability of the AFC substrates, since these substrates will freely liberate AFC when unstable).
All controls were set up in triplicate, and experiments repeated a minimum of five times. The assays were incubated at 37°C, overnight. Percent inhibition was calculated as: % Inhibition = ((AFC positive for ʺSIʺ-AFC negative for ʺSIʺ)-(AFC test-AFC negative for ʺSIʺ))/(AFC positive for ʺSIʺ-AFC negative for ʺSIʺ) × 100 [formula]
Because of this, a dilution study was required in order to determine a viable ranking. Thus, the concentration of each of the protease inactivators was lowered with a dose response setup until the most efficacious concentration for 100% inhibition (EC100) could be determined. […] The final result of the assay was a ranked candidate list of protease inactivators. A lower EC100 was attributable to a higher ranking and vice-versa.
In order to determine Ki, all of the high Vmax cocktail substrates were employed for Ki determination (since Ki of the inhibitor for the enzyme is the same regardless of the substrate). To insure the highest accuracy, Ki was to be determined upon a minimum of at least three of the high Kcat substrates. Nonlinear fitting and the Dixon plot were both employed to determine Ki of the top ranked protease inactivators. A further plot was constructed using either Eadie Hofstee as well as Hanes to determine the mode of inhibition. These methods were used in order to determine the type of inhibition.

[3] = test system: Taenia crassiceps cysts; test: Short-term prophylactic protection of BALB/c mice from cysticercosis infection; assay type: in vivo; conditions: for % Prophylactic protection of BALB/c mice: pre-injected two days, 10 T. crassiceps cysts/mouse, dosed daily for four weeks, cysts counted after one month, versus untreated controls
[4] = test system: T. crassiceps cysts; test: Therapeutic protection study in BALB/c mice; assay type: in vivo, Taenia crassiceps; conditions: inhibitor treatment began two weeks after infection with T. crassiceps cysts
Source text: Mice in all groups survived without noticeable side effects (e.g., coat condition, tail dragging or paresis, etc).

[5] = test system: T. crassiceps cysts; assay type: in vivo, Taenia crassiceps; conditions: for Percent protection, long-term: BALB/c mice, 5 mice/group, intraperitoneal, treated every day for 30 days post-challenge, left untreated for 5 months, reduction of total cyst number versus controls; for side effects in treated mice, long-term: in vivo

Question: Which “percentage drop in inhibition between the 1.4% and the 7.4% cocktail” value [1] does the source give for `CC(C)C[C@H](NC(=O)OCc1ccccc1)C(=O)N[C@@H](CC(C)C)C(=O)N[C@@H](CC(C)C)C(=O)Nc1ccc2c(C(F)(F)F)cc(=O)oc2c1` [Z-LLL-AFC, Z-Leu-Leu-Leu-AFC] (Cbz-Leu-Leu-Leu-{AFC}) here?
Answer: 25%

Question: Which results are given for `CC(C)C[C@H](NC(=O)[C@H](CC(C)C)NC(=O)[C@H](CC(C)C)NC(=O)OCc1ccccc1)C(=O)CF` [Z-LLL-FMK, Z-Leu-Leu-Leu-fluoromethylketone] (Cbz-Leu-Leu-Leu-CH2F)?
Answer: ranking of protease inactivators by EC100 [2]: top inhibitors; % Inhibition of T. solium CP in vitro [2]: 100%; Ki of protease inactivator [2]: lowest Ki values; % Prophylactic protection of BALB/c mice [3]: 100%; % Prophylactic protection of BALB/c mice ([3]; listed as Leucine-Leucine-Leucine-Fluoromethylketone): 100%; % Therapeutic protection of BALB/c mice [4]: 60%; Percent protection, long-term [5]: 80%; side effects in treated mice, long-term [5]: no side effects were noted

Question: Which “ranking of protease inactivators by EC100” value [2] does the source give for `CC(C)C[C@H](NC(=O)OCc1ccccc1)C(=O)N[C@@H](CC(C)C)C(=O)N[C@@H](Cc1ccc(O)cc1)C(=O)CF` [Z-LLY-FMK, Z-Leu-Leu-Tyr-FMK] (Cbz-Leu-Leu-Tyr-CH2F) here?
Answer: top inhibitors

Question: What about the “% Inhibition of T. solium CP in vitro” value [2] of the same molecule?
Answer: 97%

Question: What about the “Ki of protease inactivator” value [2] of the same molecule?
Answer: lowest Ki values

Question: And the “protection from cysticercosis infection, subsequent repeat of the prophylactic experiment” value ([3]; identical prophylactic experiment repeated)?
Answer: 75%-90%

Question: And the “% Prophylactic protection of BALB/c mice” value [3]?
Answer: 85-97%

Question: What about the “% Prophylactic protection of BALB/c mice” value ([3]; listed as Leucine-Leucine-Tyrosine-Fluoromethylketone) of the same molecule?
Answer: 85-97%

Question: And the “side effects / inhibitor toxicity in treated mice, short-term” value ([3]; visual inspection (coat condition, tail dragging or paresis))?
Answer: no mice showed effects of inhibitor toxicity

Question: What about the “Percent protection, long-term” value [5] of the same molecule?
Answer: 95%

Question: What about the “side effects in treated mice, long-term” value [5] of the same molecule?
Answer: no side effects were noted
